Source: patent publication US10662193B2, “Carbazole and carboline compounds for use in the diagnosis, treatment, alleviation or prevention of disorders associated with amyloid or amyloid-like proteins” (AC IMMUNE SA, priority 2014, dated 2020)

Tests used:
[1] = test system: Aβ plaques on AD brain section; assay: Assay 1: displacement of Compound B on human AD brain sections (fluorescence); format: binding
Outline: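 Frozen […] amygdala sections from Braak V-VI AD donors were preincubated with test compound at 250 μM in 50% ethanol for 20 min at room temperature, then with fluorescent Compound B at 1 μM for 20 min. Staining read at 365 nm excitation; plaques quantified by image analysis.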

[2] = target: Tau enriched paired helical filaments (PHF) from human Alzheimer's disease (AD) brains (Homo sapiens, UniProt P10636); assay: Assay 3: backscattering interferometry, dissociation constants (Kd); format: binding; settings: PHF batch 6 (pooled frontal cortex, 25 AD patients); read-out: [Kd] on PHF batch 6
Sequence of Tau enriched paired helical filaments (PHF) from human Alzheimer's disease (AD) brains (P10636 623-708 limits assumed): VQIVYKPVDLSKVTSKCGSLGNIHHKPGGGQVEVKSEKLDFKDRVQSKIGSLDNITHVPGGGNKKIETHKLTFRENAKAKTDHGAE
Description: Assay 3 (Backscattering Interferometry):
Determination of Dissociation Constants (Kd) of Compounds of this Invention
Enrichment of Paired Helical Filaments (PHF's) from Human Alzheimer's Disease Brains
For backscattering interferometry, Tau enriched paired helical filaments (PHF) from human Alzheimer's disease (AD) brains were used as a target. Due to the limited availability of tissues, to determine dissociation constants (Kd) of compounds of this invention to the target, two different batches of enriched PHF were used. These batches are identified as batch 6 and 7 and were prepared as follows.
PHF batch number 6 was prepared starting from 25 g frontal cortical tissue from post-mortem brains of 25 Alzheimer's disease (AD) patients which were obtained from the London Tissue Bank. The mean age at death for the AD patients was 76 years (48% females). Brain samples were characterized for Braak disease stage (Braak and Braak, 1991), with most donors displaying a stage VI. The postmortem interval between death and brain dissection was between 6 and 65 h. Human brain homogenates were prepared by SB Drug Discovery (Glasgow, Scotland, UK) from the post-mortem cortical tissue of the 25 patients). Each tissue (1 g) was homogenized with a Dounce glass homogenizer in 1.5 mL 100 mM 2-(N-morpholino) ethane-sulfonic acid (MES) pH 6.8, 0.75 M NaCl, 1 mM EGTA, 0.5 mM MgSO4, 2 mM DTT containing protease inhibitors (Complete; Roche 11697498001). For each sample, two aliquots containing 0.5 g brain homogenates in 0.75 mL were shipped to AC Immune SA on dry ice and stored at −80° C. For the enrichment of PHF, 1 aliquot per donor corresponding to total 12.5 g of brain tissue were thawed on ice and then incubated at 4° C. for 20 min to depolymerize any residual microtubules. All samples were then pooled and transferred to three polycarbonate centrifuge bottles (16×76 mm; Beckman 355603).
PHF batch number 7 was prepared starting from 32 g of parietal cortex tissue from post-mortem brain of one Alzheimer's disease (AD) patient was obtained from an external provider (Tissue Solution). The patient was a person who died for end stage AD. The brain sample was collected 5 h post-mortem and characterized for Braak disease stage (Braak and Braak, 1991) as stage VI. The method used for the PHF enrichment was modified from published procedures (Jicha et al., 1997; Rostagno and Ghiso, 2009). Around 16 g of the AD human brain was thawed on ice and homogenized with 50 ml of homogenization buffer [0.75 M NaCl in RAB buffer (100 mM 2-(N-morpholino) ethanesulfonic acid (MES), 1 mM EGTA, 0.5 mM MgSO4, 2 mM DTT, pH 6.8) supplemented with protease inhibitors (Complete; Roche 11697498001)] in a glass Dounce homogenizer. The homogenate was then incubated at 4° C. for 20 min to let depolymerize any residual microtubules, before being transferred into polycarbonate centrifuge bottles (16×76 mm; Beckman 355603). For both purifications, brain homogenates were then centrifuged at 11,000 g (12,700 RPM) in an ultracentrifuge (Beckman, XL100K) for 20 min at 4° C. using the pre-cooled 70.1 rotor (Beckman, 342184). Pellets were kept on ice. Supernatants were pooled into polycarbonate bottles and centrifuged again at 100,000 g (38,000 RPM) for 1 h at 4° C. in the 70.1 Ti rotor to isolate PHF-rich pellets, whereas soluble Tau remained in the supernatants. The pellets from the first and second centrifugations were resuspended in 120 mL of extraction buffer [10 mM Tris-HCl pH 7.4, 10% sucrose, 0.85 M NaCl, 1% protease inhibitor (Calbiochem 539131), 1 mM EGTA, 1% phosphatase inhibitor (Sigma P5726 and P0044)]. The solution was then transferred into polycarbonate centrifuge bottles (16×76 mm; Beckman 355603) and centrifuged at 15,000 g (14,800 RPM) in an ultracentrifuge (Beckman, XL100K) for 20 min at 4° C. using the 70.1 Ti rotor. […]

Row | Structure (SMILES) | Competition on AD brain section Aβ plaques (1 μM Compound B vs 250 μM compound) [1] [%] | Kd [2] [nM]
1 | Cn1c2ccncc2c2ccc(Nc3ccc(F)c(F)c3)nc21 [Example 2] | 0 | 33 ± 5
2 | Cn1c2ccncc2c2ccc(Nc3ccc(OC(F)F)cc3)nc21 [Example 9] | 0 | 
3 | Cn1c2ccncc2c2ccc(Nc3cccc(OCCF)c3)nc21 [Example 8] | 6 | 19 ± 3
